Reference: patent US4010184A, “Thienodiazepines” (Yoshitomi Pharmaceutical Industries, Ltd., priority 1973, dated 1977)

Tests used:
[1] = system: mice (tail electrical stimulation, absence of squeak); experiment: Analgesic Activity (Electrical Stimulation Method); assay type: in vivo, mouse; details: male mice, intraperitoneal, tail stimulated 5 s, 25 volts, 40 msec., 1 cps, determined graphically; for ED50: Mus musculus, ip
Protocol: 1. Analgesic Activity (Electrical Stimulation Method)
The test was performed essentially in accordance with the methods described in "Journal of the Pharmaceutical Society of Japan," vol 73, p. 212 ff. (1953) and "Folia Pharmacologica Japonica," vol. 65, p. 378 ff. (1969).
Test compound was administered intraperitoneally to groups consisting 10 male mice. The tail of the mouse was electrically stimulated for 5 seconds with interrupted direct current (25 volts, 40 msec., 1 cps.). When no squeak was observed during the electrical stimulation, analgesic effect was evaluated to be positive.
The ED50 (50% effective dose) was determined graphically.

[2] = system: mice (pentylenetetrazole lethality); experiment: Anticonvulsant Activity (pentylenetetrazole-induced death); assay type: in vivo, mouse; details: intraperitoneal; for Anticonvulsant Activity %-Inhibition: 15 min before pentylenetetrazole 150 mg/kg s.c., deaths within 3 hours, at dose equal to analgesic ED50: 40 (1, 2), 30 (3), 28 (4), 200 (5), 170 (6), 200 (7) mg/kg; for A/B (A: ED50 value for analgesic activity; B: ED50 value for anticonvulsant activity): ratio of ED50 values
Protocol: 2. Anticonvulsant Activity
Pentylenetetrazole (150 mg/kg) was administered subcutaneously to groups consisting 6 mice 15 minutes after the intraperitoneal administration of the test compound. The number of dead mice were counted within 3 hours after the administration of pentylenetetrazole. On one hand, the %-inhibition at the dose equal to the ED50 dose for analgesic activity was determined, and on the other, the ED50, the dose required to suppress the lethal rate to 50%, was determined graphically.

| Compound | ED50 [1] | Anticonvulsant Activity %-Inhibition [2] | A/B (A: ED50 value for analgesic activity; B: ED50 value for anticonvulsant activity) [2] | Analgesic Activity ED50 [1] |
| --- | --- | --- | --- | --- |
| CCc1cc2c(s1)N(C(=O)NC)CCN=C2c1ccccc1Cl [Test Compound 7, 5-o-chlorophenyl-7-ethyl-1-methylcarbamoyl-2,3-dihydro-1H-thieno[2,3-e][1,4]diazepine, reference compound] | 200 mg/kg | 100% | 2 - 4 | – |
| CCc1cc2c(s1)N(C(=O)N(C)C)CCN=C2c1ccc(Cl)cc1.Cl [Test Compound 2, 5-p-chlorophenyl-7-ethyl-1-dimethylcarbamoyl-2,3-dihydro-1H-thieno[2,3-e][1,4]diazepine hydrochloride] | 40 mg/kg | 0% | < 0.4 | – |
| Cc1c(N(C)C)c(=O)n(-c2ccccc2)n1C [Aminopyrine, reference compound] | 100 mg/kg | – | – | – |
| 5-o-chlorophenyl-7-ethyl-1-piperidinocarbonyl-2,3-dihydro-1H-thieno[2,3-e][1,4]diazepine hydrochloride [Example 3] | – | 0% | < 0.4 | – |
| 7-ethyl-1-dimethylcarbamoyl-5-phenyl-2,3-dihydro-1H-thieno[2,3-e][1,4]diazepine hydrochloric [Example 5] | – | – | – | > 200 mg/kg |
| CCc1cc2c(s1)N(C(=O)N(C)C)CCN=C2c1ccccc1Cl.Cl [Test Compound 1, 5-o-chlorophenyl-7-ethyl-1-dimethylcarbamoyl-2,3-dihydro-1H-thieno[2,3-e][1,4]diazepine hydrochloride] | 40 mg/kg | 0% | < 0.4 | – |
| 5-(3,4-dichlorophenyl)-7-ethyl-1-dimethylcarbamoyl-2,3-dihydro-1H-thieno[2,3-e][1,4]diazepine hydrochloride [Example 6] | – | – | – | 170 mg/kg |
| 5-o-chlorophenyl-7-ethyl-1-(4-methyl-1-piperazinylcarbonyl)-2,3-dihydro-1H-thieno[2,3-e][1,4]diazepine dihydrochloride 1/2 -hydrate [Example 4] | – | – | – | 28 mg/kg |
